# Data as given in ChEMBL document CHEMBL1155168, “Bound to shock: protection from lethal endotoxemic shock by a novel, nontoxic, alkylpolyamine lipopolysaccharide sequestrant” (Antimicrob Agents Chemother, 2007).
# Active and inactive are the calls of the source. The calls are words filed in the database; no cut-off is given here.
# How the values were obtained:
# Blood = test: Ex vivo inhibition of TNF-alpha-stimulated T180/Y182 dual phosphorylation of p38 MAPK in human whole blood by flow cytometry; assay type: functional, tissue-based
# Mus musculus [1] = test: Increase in survivality of ip dosed D-galactosamine-primed mouse model of LPS-induced lethal septic shock administered as precomplex with LPS; assay type: functional, organism-based
# HEK-Blue [2] = test: Inhibition of phorbol esters-stimulated NF-kappaB induction in HEK-Blue cells assessed as expression of secreted alkaline phosphatase by seAP assay; assay type: functional, cell-based; conditions: Homo sapiens
# Escherichia coli [3] = test: Ex vivo inhibition of Escherichia coli lipopolysaccharide-stimulated T180/Y182 dual phosphorylation of p38 MAPK in human whole blood by flow cytometry; assay type: tissue-based
# HEK-Blue [4] = test: Inhibition of ionomycin-stimulated NF-kappaB induction in HEK-Blue cells assessed as expression of secreted alkaline phosphatase by seAP assay; assay type: functional, cell-based; conditions: Homo sapiens
# Escherichia coli [5] = test: Displacement of BODIPY-cadaverine from Escherichia coli O111:B4 lipopolysaccharide
# HEK-Blue [6] = test: Inhibition of TNF-alpha-stimulated NF-kappaB induction in HEK-Blue cells assessed as expression of secreted alkaline phosphatase by seAP assay; assay type: functional, cell-based; conditions: Homo sapiens
# Mus musculus [7] = test: Increase in survivality of sc dosed D-galactosamine-primed CF1 mouse model of LPS-induced lethal septic shock administered 1 hr prior to LPS challenge; assay type: functional, organism-based
# HEK-Blue [8] = test: Inhibition of IL-1-beta-stimulated NF-kappaB induction in HEK-Blue cells assessed as expression of secreted alkaline phosphatase by seAP assay; assay type: functional, cell-based; conditions: Homo sapiens
# [9] = Inhibition of LPS-stimulated NF-kappaB induction in HEK-Blue cells assessed as expression of secreted alkaline phosphatase by seAP assay; assay type: cell-based
# Mus musculus [10] = test: Inhibition of LPS-induced cytokines levels in D-galactosamine-primed mouse model of at 4 mg/kg, sc; assay type: functional, organism-based; parameters: dose 4 mg/kg
# [11] = Inhibition of Escherichia coli O111:B4 lipopolysaccharide-stimulated NF-kappaB induction in HEK-Blue cells assessed as expression of secreted alkaline phosphatase by seAP assay; assay type: cell-based
# [12] = Ex vivo inhibition of Escherichia coli lipopolysaccharide-stimulated TNFalpha production in human whole blood by multiplexed flow cytometric bead array system; assay type: tissue-based
# J774.A1 = test: Inhibition of LPS-stimulated nitric oxide production in mouse J774A.1 cells after 16 hrs; assay type: functional, cell-based
# [13] = Inhibition of Pseudomonas aeruginosa lipopolysaccharide-stimulated NF-kappaB induction in HEK-Blue cells assessed as expression of secreted alkaline phosphatase by seAP assay; assay type: cell-based
# [14] = Inhibition of Escherichia coli 055:B5 lipopolysaccharide-stimulated NF-kappaB induction in HEK-Blue cells assessed as expression of secreted alkaline phosphatase by seAP assay; assay type: cell-based
# [15] = Inhibition of Vibrio cholerae lipopolysaccharide-stimulated NF-kappaB induction in HEK-Blue cells assessed as expression of secreted alkaline phosphatase by seAP assay; assay type: cell-based
# [16] = Inhibition of Salmonella enterica serovar Abortus equi lipopolysaccharide-stimulated NF-kappaB induction in HEK-Blue cells assessed as expression of secreted alkaline phosphatase by seAP assay; assay type: cell-based
# Mus musculus [17] = test: Increase in survivality of sc dosed D-galactosamine-primed mouse model of TNF-alpha-induced lethal septic shock; assay type: functional, organism-based
# Mus musculus [18] = test: Toxicity in mouse at 40 mg/kg/day, sc after 5 days; assay type: organism-based; parameters: route subcutaneous; conditions: in vivo, 120 h
# [19] = Ex vivo inhibition of Escherichia coli lipopolysaccharide-stimulated IL8 production in human whole blood by multiplexed flow cytometric bead array system; assay type: tissue-based
# [20] = Ex vivo inhibition of Escherichia coli lipopolysaccharide-stimulated IL6 production in human whole blood by multiplexed flow cytometric bead array system; assay type: tissue-based
# Mus musculus [21] = test: Toxicity in mouse in mouse assessed as polyamine level in plasma at 40 mg/kg/day, sc for 5 days relative to control; assay type: organism-based; parameters: route subcutaneous; conditions: in vivo, 120 h
molecule,measurement,setting,value
POLYMYXIN B [listing 1 of 2 here],Activity,Blood,inactive
same,Activity,Mus musculus [1],Dose-dependent effect
same,Activity,HEK-Blue [2],inactive
same,Activity,Escherichia coli [3],Dose-dependent effect
same,Activity,HEK-Blue [4],inactive
same,ED50,Escherichia coli [5],1310 nM
same,Activity,HEK-Blue [6],inactive
same,Activity,Mus musculus [7],Dose-dependent effect
same,Activity,HEK-Blue [8],inactive
CCCCCCCCCCCCCCCCNCCCNCCCNCCCCNCCCN.O=C(O)C(F)(F)F,Activity,Blood,inactive
same,Activity,Mus musculus [1],Dose-dependent effect
same,IC50,[9]; HEK-Blue,32 nM
same,Activity,HEK-Blue [2],inactive
same,Activity,Mus musculus [10],Active
same,IC50,"[11]; Escherichia coli, HEK-Blue",30 nM
same,IC50,"[12]; Escherichia coli, Blood",3000 nM
same,IC50,"J774.A1; Mus musculus, J774.A1, 16 h",21 nM
same,IC50,"[13]; Pseudomonas aeruginosa, HEK-Blue",30 nM
same,IC50,"[14]; Escherichia coli, HEK-Blue",30 nM
same,Activity,HEK-Blue [4],inactive
same,IC50,"[15]; Vibrio cholerae, HEK-Blue",30 nM
same,IC50,"[16]; Salmonella enterica, HEK-Blue",82 nM
same,ED50,Escherichia coli [5],1200 nM
same,Activity,Mus musculus [17],inactive
same,Activity,Mus musculus [18],Non-toxic
same,Activity,HEK-Blue [6],inactive
same,IC50,"[19]; Escherichia coli, Blood",3000 nM
same,IC50,"[20]; Escherichia coli, Blood",3000 nM
same,Activity,Mus musculus [21],Non-toxic
same,Activity,Mus musculus [7],Dose-dependent effect
same,Activity,HEK-Blue [8],inactive
POLYMYXIN B [listing 2 of 2 here],IC50,[9]; hek-blue,32 nM
same,IC50,[11]; hek-blue,30 nM
same,IC50,[12],11000 nM
same,IC50,J774.A1; j774.a1,27 nM
same,IC50,[13]; hek-blue,30 nM
same,IC50,[14]; hek-blue,30 nM
same,IC50,[15]; hek-blue,30 nM
same,IC50,[16]; hek-blue,562 nM
same,IC50,[19],11000 nM
same,IC50,[20],11000 nM
